In patent US20230255864A1, “NOVEL COMPOSITIONS COMBINING HEMP DERIVATIVES AND AT LEAST ONE PEPTIDE AND USE THEREOF” (FRANCE COSMEPHYL-LAB, priority 2020, published 2023):
“And” between values parts separate entries of the source, which are not always exact repeats. Identical values can stand only once.

System: murine macrophages (RAW 267.4 cell line) stimulated with LPS from E. coli
Assay: In vitro anti-inflammatory test: inhibition of NO production in LPS-stimulated murine macrophages (Griess reaction)
Type: cell-based
Conditions: for Anti-inflammatory ratio: ratio between anti-inflammatory activity and toxicity (IC50 NO release and IC50 cell viability)
From the text: Low-grade inflammation is strongly implicated in degenerative processes in human skin such as photoaging and atopy. The reduction of low-intensity inflammatory reactions by topical products may be necessary in the event of cutaneous aggression, to obtain optimal healing and restore the physiological balance of human skin. In order to identify new anti-inflammatory candidates, an in vitro anti-inflammatory test was developed with a murine cell line: the murine macrophage test RAW 267.4. This test was used to monitor the inhibitory effects of chemical compounds or natural extracts on the low-intensity inflammatory cascade leading to overproduction of nitrogen oxide (NO) in the endothelial wall of blood vessels.
The study was carried out to evaluate the ability of cannabidiol, palmitoyl tripeptide-8 (active ingredient in Neutrazen™), and their mixture to inhibit the pro-inflammatory cascade leading to the production of NO in murine macrophages stimulated by liposaccharides (LPS).
The in vitro anti-inflammatory test is based on the ability of murine macrophages to generate a strong inflammatory response when stimulated by antigens such as LPS. Immobilized murine macrophages (RAW 267.4 cell line) are stimulated with LPS from E. coli and exposed for 24 hours. At the end of the incubation period, the production of NO is evaluated indirectly by measuring the accumulation of nitrite/nitrate, stable final products of the oxidation of NO, in the culture medium using a method spectrophotometric based on the Griess reaction.
MURINS RAW 267.4 Macrophage cell line (Sigma-Aldrich, No. P6110401, Lot. 091006), low number of passages (less than 50).
Complete medium: DMEM with stabilized L-glutamine (Dulbecco's Minimum Essential Medium, PAN BIOTECH. Lot 974251) supplemented with Penicillin 100 IU/ml and streptomycin 100 μg/m1 (PAN BIOTECH, Lot 225614), and 10% inactivated calf serum (PAN BIOTECH, Lot P460518), pH 7.2, freshly prepared, stored for less than 3 weeks.
Cannabidiol (CBD) is diluted in DMSO (10 mg/mL storage solution), and subjected to an ultrasonic bath for 20 minutes. The Neutrazen™ solution is diluted in PBS (Phosphate buffer saline, Sigma-Aldrich).
The negative control: DMSO 1% The positive control: Dexamethasone (Sigma-Aldrich) 1-5-10-50-100 μM.
RAW 267.4 murine macrophages were inoculated into 48-well tissue culture plates at a concentration of 1.10^5 cells/ml (200 μl/well) and incubated for 24 hours at 37° C. (5% CO2).
At the end of the incubation period, the culture medium was replaced with 200 μl of medium containing the appropriate concentrations of the material to be tested, and the cells were incubated at 37° C. (5% CO2) for one hour.
At the end of the incubation period, pro-inflammatory E. coli LPS was added to the cell cultures (1 μg/ml. Then the cells were incubated at 37° C. (5% CO2) for 24 hours.
The amount of NO released was measured in the culture supernatant by the Griess reaction. 100 μl of the supernatants were transferred into the wells of a 96-well tissue culture plate, and modified Griess reagent (SIGMA-ALDRICH) were added to each well. After a period of 15 min at room temperature, the Optical Density (OD) of each well was read at a wavelength of 540 nm by an Infinite M200 Pro fluorescence-luminescence reader (TECAN).
The concentrations of test material causing a 50% decrease in NO release (IC50 (NO release)) and a 50% decrease in cell viability (IC50 (cell viability)) respectively were calculated using TableCurve software Version 2.0.
The anti-inflammatory ratio corresponds to the ratio between anti-inflammatory activity and toxicity. It is expressed as follows: […]
Analysis of the anti-inflammatory activity and of the cell viability of the cannabidiol/palmitoyl tripeptide-8 (Neutrazen™) association in a mixture by isobologram analysis.

SMILES: C=C(C)[C@@H]1CCC(C)=C[C@H]1c1c(O)cc(CCCCC)cc1O [CBD]
- NO production (% as compared to the negative control) (CBD 0.01 weight % in mixture with NeutraZen 0.01%): 94.48% and 98.73% and 100.63%
- NO production (% as compared to the negative control) (CBD 0.01 weight % in mixture with NeutraZen 0.025%): 98.77% and 101.91% and 100.00%
- NO production (% as compared to the negative control) (CBD 0.01 weight % in mixture with NeutraZen 0.05%): 100.00% and 103.82% and 103.16%
- NO production (% as compared to the negative control) (CBD 0.01 weight % in mixture with NeutraZen 0.1%): 101.23% and 103.82% and 98.10%
- NO production (% as compared to the negative control) (CBD 0.025 weight % in mixture with NeutraZen 0.01%): 87.12% and 89.17% and 92.41%
- NO production (% as compared to the negative control) (CBD 0.025 weight % in mixture with NeutraZen 0.025%): 92.64% and 96.18% and 96.84%
- NO production (% as compared to the negative control) (CBD 0.025 weight % in mixture with NeutraZen 0.05%): 93.87% and 100.00% and 98.10%
- NO production (% as compared to the negative control) (CBD 0.025 weight % in mixture with NeutraZen 0.1%): 103.07% and 101.27% and 100.63%
- NO production (% as compared to the negative control) (CBD 0.05 weight % in mixture with NeutraZen 0.01%): 84.66% and 85.99% and 88.61%
- NO production (% as compared to the negative control) (CBD 0.05 weight % in mixture with NeutraZen 0.025%): 84.66% and 87.90% and 87.34%
- NO production (% as compared to the negative control) (CBD 0.05 weight % in mixture with NeutraZen 0.05%): 84.05% and 86.62% and 87.97%
- NO production (% as compared to the negative control) (CBD 0.05 weight % in mixture with NeutraZen 0.1%): 79.75% and 84.71% and 82.28%
- NO production (% as compared to the negative control) (CBD 0.1 weight % in mixture with NeutraZen 0.01%): 80.37% and 77.07% and 85.44%
- NO production (% as compared to the negative control) (CBD 0.1 weight % in mixture with NeutraZen 0.025%): 79.75% and 80.89% and 82.28%
- NO production (% as compared to the negative control) (CBD 0.1 weight % in mixture with NeutraZen 0.05%): 79.75% and 79.62% and 83.54%
- NO production (% as compared to the negative control) (CBD 0.1 weight % in mixture with NeutraZen 0.1%): 72.39% and 74.52% and 74.68%
- NO production (% as compared to the negative control) (CBD 0.25 weight % in mixture with NeutraZen 0.01%): 53.37% and 61.15% and 60.76%
- NO production (% as compared to the negative control) (CBD 0.25 weight % in mixture with NeutraZen 0.025%): 47.24% and 49.04% and 51.90%
- NO production (% as compared to the negative control) (CBD 0.25 weight % in mixture with NeutraZen 0.05%): 47.24% and 52.87% and 47.47%
- NO production (% as compared to the negative control) (CBD 0.25 weight % in mixture with NeutraZen 0.1%): 50.92% and 43.95% and 50.00%
- NO production (% as compared to the negative control) (CBD 0.5 weight % in mixture with NeutraZen 0.01%): 0% and 0.63%
- NO production (% as compared to the negative control) (CBD 0.5 weight % in mixture with NeutraZen 0.025%): 0%
- NO production (% as compared to the negative control) (CBD 0.5 weight % in mixture with NeutraZen 0.05%): 0% and 4.46% and 1.27%
- NO production (% as compared to the negative control) (CBD 0.5 weight % in mixture with NeutraZen 0.1%): 0% and 1.27%
- NO production (% as compared to the negative control) (CBD 1 weight % in mixture with NeutraZen 0.01%): 0%
- NO production (% as compared to the negative control) (CBD 1 weight % in mixture with NeutraZen 0.025%): 0%
- NO production (% as compared to the negative control) (CBD 1 weight % in mixture with NeutraZen 0.05%): 0%
- NO production (% as compared to the negative control) (CBD 1 weight % in mixture with NeutraZen 0.1%): 0%
- NO production (% as compared to the negative control) (CBD 2.5 weight % in mixture with NeutraZen 0.01%): 0%
- NO production (% as compared to the negative control) (CBD 2.5 weight % in mixture with NeutraZen 0.025%): 0%
- NO production (% as compared to the negative control) (CBD 2.5 weight % in mixture with NeutraZen 0.05%): 0%
- NO production (% as compared to the negative control) (CBD 2.5 weight % in mixture with NeutraZen 0.1%): 0%
- IC50-NO release (non-linear regression of 3 series of experiments, weight %, for mixtures CBD concentration at the fixed Neutrazen concentration): 0.319 ± 0.006%
- Anti-inflammatory ratio: <1
- Anti-inflammatory ratio (listed as cannabidiol): less than 1
- NO production (% as compared to the negative control) (sample alone at 0.01 weight %): 99.39% and 100.64% and 102.53%
- NO production (% as compared to the negative control) (sample alone at 0.025 weight %): 96.93% and 97.45% and 98.10%
- NO production (% as compared to the negative control) (sample alone at 0.05 weight %): 97.55% and 89.17% and 93.04%
- NO production (% as compared to the negative control) (sample alone at 0.1 weight %): 95.09% and 99.36% and 99.37%
- NO production (% as compared to the negative control) (sample alone at 0.25 weight %): 77.91% and 80.25% and 81.65%
- NO production (% as compared to the negative control) (sample alone at 0.5 weight %): 2.45% and 5.10% and 2.53%
- NO production (% as compared to the negative control) (sample alone at 1 weight %): 0.61% and 1.91% and 1.90%
- NO production (% as compared to the negative control) (sample alone at 2.5 weight %): 0.00% and 2.55% and 1.27%
